Tests used:
U87-MG xenografts = assay: combination therapy of TMZ with 188Re-IDA-D-[c(RGDfK)]2: tumor volume; assay type: in vivo, BALB/c nu/nu nude mice; details: TMZ 2 or 5 mgkg^−1 once a week for 14 days, n = 4
Method: A suspension of human glioblastoma U87-MG cells was prepared (5 × 10^6 cellsmL^−1). A total of 0.1 mL of cell suspension was injected subcutaneously into the right flank of a 6–7-week-old male BALB/c nu/nu nude mice (20–25 g, Orient Bio Inc., Seongnam, Korea). In the case of pharmacokinetic studies of ^99mTc-IDA-D-[c(RGDfK)]2, we used tumor xenograft mice whose tumor cells were inoculated in the right shoulder and performed the SPECT imaging study when tumor volume reached 68.7 ± 18.8 mm^3 at 10 days after injection of U87-MG cells. Evaluations of integrin-targeted blocking and radiotherapy treatment on the growth of U87-MG xenografts were carried out when tumor volume reached 59.4 ± 14.9 mm^3 (For authentic “cold” Re-peptide (^185/187Re-IDA-D-[c(RGDfK)]2) treatment) and 66.2 ± 15.3 mm^3 (For radiotherapy (^188Re-IDA-D-[c(RGDfK)]2) treatment) at 10 days after injection of U87-MG cells. Experiments with vehicle, negative control peptide (^188Re-IDA-D-[c(RADfK)]2) or ^188Re-IDA-D-[c(RGDfK)]2 treatments (11.1 MBq) in U87-MG xenografts were carried out when tumor volume reached 40.3 ± 14.8 mm^3 at 9 days after injection of U87-MG cells. […]
For caliper measurements, tumor length (longitudinal diameter) and tumor width (transverse diameter) were measured, and the tumor volume was calculated according to the following formula: tumor volume = (length × width^2)/2.

integrin αvβ3 = assay: anti-integrin αvβ3 immunohistochemical staining of dissected tumor tissues; assay type: in vivo, BALB/c nu/nu nude mice; details: TMZ 5 mgkg^−1, after 2 weeks
Method: Tumor tissues were harvested on day 14 after the treatment and immediately fixed in 10% formalin solution. Frozen tissue sections (5 μm) were placed onto glass slides. The tumor sections were stained with anti-integrin αvβ3 rabbit antibody (1:1000, Millipore) at 4 °C for 16 h. The sections were then incubated with anti-rabbit secondary antibody (biotinylated) at room temperature for 1 h. The detection system (Vector Laboratories, Burlingame, CA, USA) was applied according to the manufacturer’s instructions. The nuclei were counter-stained with hematoxylin (Invitrogen, Carlsbad, CA, USA). For assessment of tumor vascularization, mouse anti-human CD31 monoclonal antibody (diluted 1:40, Dako) staining was performed on acetone-fixed cryosections using a blood vessel staining kit (ECM590, Millipore Ireland, Cork, Ireland). For another assessment of integrin αvβ3 receptors in dissected tumor tissues, anti-integrin αvβ3 (SC-7312, Santa Cruz Biotech, Santa Cruz, CA, USA) was used. Primary antibody against γH2AX (diluted 1:50, Abcam) was applied to acetone-fixed cryosections and incubated overnight. […] Images were acquired using Axioscope A1 fluorescent microscope (Carl Zeiss, Jena, Germany) or AxioCam MRc5 (Carl Zeiss, Jena, Germany) and analyzed with Axiovision software (version 4.4, Carl Zeiss Meditec, Jena, Germany). […]

With `Cn1nnc2c(C(N)=O)ncn2c1=O` [TMZ, Temozolomide] the “tumor size compared with saline treatment” value (U87-MG xenografts) was “significantly reduced tumor size” and the “integrin expression in tumor tissues” value (integrin αvβ3) was “reduced integrin expression”.
